In the supplement of paper PMC10307832:

Tests used:
Experiment in all cases: relative viability (nuclei count vs DMSO), 5 days (fraction); higher = more cells survive
201T = system: 201T
Summary of the method: (§1)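 Lung cancer cell lines in 1536-well plates got either a single drug or a fixed anchor-drug dose together with five library-drug doses (not always all listed) in √10 steps, by pin tool, on the day after seeding. Nuclei were counted after 5 days, and relative viability is the treated-to-vehicle ratio of nuclei counts. Values are medians of duplicate plates.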

A-427 = system: A-427
Summary of the method: as §1

COR-L23 = system: COR-L23
Summary of the method: as §1

H3255 = system: H3255
Summary of the method: as §1

LCLC-103H = system: LCLC-103H
Summary of the method: as §1

LCLC-97TM1 = system: LCLC-97TM1
Summary of the method: as §1

LU99A = system: LU99A
Summary of the method: as §1

NCI-H1563 = system: NCI-H1563
Summary of the method: as §1

NCI-H1650 = system: NCI-H1650
Summary of the method: as §1

NCI-H1651 = system: NCI-H1651
Summary of the method: as §1

NCI-H2347 = system: NCI-H2347
Summary of the method: as §1

NCI-H23 = system: NCI-H23
Summary of the method: as §1

NCI-H460 = system: NCI-H460
Summary of the method: as §1

NCI-H650 = system: NCI-H650
Summary of the method: as §1

NCI-H727 = system: NCI-H727
Summary of the method: as §1

NCI-H838 = system: NCI-H838
Summary of the method: as §1

PC-14 = system: PC-14
Summary of the method: as §1

PC-3 [JPC-3] = system: PC-3 [JPC-3]
Summary of the method: as §1

RERF-LC-KJ = system: RERF-LC-KJ
Summary of the method: as §1

SW 1573 = system: SW 1573
Summary of the method: as §1

## COc1cc(N2CCC(C(N)=O)CC2)ccc1Nc1nc(N)c(Cl)c(Nc2ccccc2S(=O)(=O)C(C)C)n1 [HG-5-88-01] + CC(C)C[C@H](NC(=O)[C@H](Cc1ccccc1)NC(=O)c1cnccn1)B(O)O [Bortezomib] (partner 0.002 µM)
201T; first compound 0.04 µM
  relative viability: 1.12
201T; first compound 0.1265 µM
  relative viability: 1.03
201T; first compound 0.4 µM
  relative viability: 1.1
201T; first compound 1.265 µM
  relative viability: 1.06
201T; first compound 4 µM
  relative viability: 1.2
A-427; first compound 0.04 µM
  relative viability: 0.968
A-427; first compound 0.1265 µM
  relative viability: 0.955
A-427; first compound 0.4 µM
  relative viability: 1.01
A-427; first compound 1.265 µM
  relative viability: 1.05
A-427; first compound 4 µM
  relative viability: 0.804
COR-L23; first compound 0.04 µM
  relative viability: 1.06
COR-L23; first compound 0.1265 µM
  relative viability: 1.08
COR-L23; first compound 0.4 µM
  relative viability: 0.854
COR-L23; first compound 1.265 µM
  relative viability: 0.91
COR-L23; first compound 4 µM
  relative viability: 0.896
H3255; first compound 0.04 µM
  relative viability: 0.748
H3255; first compound 0.1265 µM
  relative viability: 0.745
H3255; first compound 0.4 µM
  relative viability: 0.75
H3255; first compound 4 µM
  relative viability: 0.388
LCLC-103H; first compound 0.04 µM
  relative viability: 1.02
LCLC-103H; first compound 0.1265 µM
  relative viability: 0.995
LCLC-103H; first compound 0.4 µM
  relative viability: 0.913
LCLC-103H; first compound 1.265 µM
  relative viability: 1.01
LCLC-103H; first compound 4 µM
  relative viability: 1.01
LCLC-97TM1; first compound 0.04 µM
  relative viability: 1.05
LCLC-97TM1; first compound 0.1265 µM
  relative viability: 0.313
LCLC-97TM1; first compound 0.4 µM
  relative viability: 0.308
LCLC-97TM1; first compound 1.265 µM
  relative viability: 0.546
LCLC-97TM1; first compound 4 µM
  relative viability: 0.213
LU99A; first compound 0.04 µM
  relative viability: 1.09
LU99A; first compound 0.1265 µM
  relative viability: 1.15
LU99A; first compound 0.4 µM
  relative viability: 1.03
LU99A; first compound 1.265 µM
  relative viability: 1.21
LU99A; first compound 4 µM
  relative viability: 1.07
NCI-H1563; first compound 0.04 µM
  relative viability: 0.827
NCI-H1563; first compound 0.1265 µM
  relative viability: 0.92
NCI-H1563; first compound 0.4 µM
  relative viability: 0.925
NCI-H1563; first compound 1.265 µM
  relative viability: 0.765
NCI-H1563; first compound 4 µM
  relative viability: 0.855
NCI-H1650; first compound 0.04 µM
  relative viability: 0.207
NCI-H1650; first compound 0.1265 µM
  relative viability: 0.219
NCI-H1650; first compound 0.4 µM
  relative viability: 0.195
NCI-H1650; first compound 1.265 µM
  relative viability: 0.185
NCI-H1650; first compound 4 µM
  relative viability: 0.189
NCI-H1651; first compound 0.04 µM
  relative viability: 0.844
NCI-H1651; first compound 0.1265 µM
  relative viability: 0.935
NCI-H1651; first compound 0.4 µM
  relative viability: 0.941
NCI-H1651; first compound 1.265 µM
  relative viability: 0.976
NCI-H1651; first compound 4 µM
  relative viability: 1.03
NCI-H2347; first compound 0.04 µM
  relative viability: 0.954
NCI-H2347; first compound 0.1265 µM
  relative viability: 0.873
NCI-H2347; first compound 0.4 µM
  relative viability: 1.01
NCI-H2347; first compound 1.265 µM
  relative viability: 1.16
NCI-H2347; first compound 4 µM
  relative viability: 0.897
NCI-H23; first compound 0.04 µM
  relative viability: 0.954
NCI-H23; first compound 0.1265 µM
  relative viability: 1.02
NCI-H23; first compound 0.4 µM
  relative viability: 0.91
NCI-H23; first compound 1.265 µM
  relative viability: 1.12
NCI-H23; first compound 4 µM
  relative viability: 0.629
NCI-H460; first compound 0.04 µM
  relative viability: 0.955
NCI-H460; first compound 0.1265 µM
  relative viability: 1.17
NCI-H460; first compound 0.4 µM
  relative viability: 1.09
NCI-H460; first compound 1.265 µM
  relative viability: 1.04
NCI-H460; first compound 4 µM
  relative viability: 1.28
NCI-H650; first compound 0.04 µM
  relative viability: 0.844
NCI-H650; first compound 0.1265 µM
  relative viability: 0.767
NCI-H650; first compound 0.4 µM
  relative viability: 0.711
NCI-H650; first compound 1.265 µM
  relative viability: 0.815
NCI-H650; first compound 4 µM
  relative viability: 0.381
NCI-H727; first compound 0.04 µM
  relative viability: 0.689
NCI-H727; first compound 0.1265 µM
  relative viability: 0.924
NCI-H727; first compound 0.4 µM
  relative viability: 0.769
NCI-H727; first compound 1.265 µM
  relative viability: 0.643
NCI-H727; first compound 4 µM
  relative viability: 0.388
NCI-H838; first compound 0.04 µM
  relative viability: 0.818
NCI-H838; first compound 0.1265 µM
  relative viability: 0.645
NCI-H838; first compound 0.4 µM
  relative viability: 0.759
NCI-H838; first compound 1.265 µM
  relative viability: 0.702
NCI-H838; first compound 4 µM
  relative viability: 0.333
PC-14; first compound 0.04 µM
  relative viability: 0.837
PC-14; first compound 0.1265 µM
  relative viability: 0.969
PC-14; first compound 0.4 µM
  relative viability: 0.864
PC-14; first compound 1.265 µM
  relative viability: 0.883
PC-14; first compound 4 µM
  relative viability: 0.316
PC-3 [JPC-3]; first compound 0.04 µM
  relative viability: 0.982
PC-3 [JPC-3]; first compound 0.1265 µM
  relative viability: 0.928
PC-3 [JPC-3]; first compound 0.4 µM
  relative viability: 0.819
PC-3 [JPC-3]; first compound 1.265 µM
  relative viability: 0.849
PC-3 [JPC-3]; first compound 4 µM
  relative viability: 0.533
RERF-LC-KJ; first compound 0.04 µM
  relative viability: 1.23
RERF-LC-KJ; first compound 0.1265 µM
  relative viability: 1.19
RERF-LC-KJ; first compound 0.4 µM
  relative viability: 1.08
RERF-LC-KJ; first compound 1.265 µM
  relative viability: 0.992
RERF-LC-KJ; first compound 4 µM
  relative viability: 0.639
SW 1573; first compound 0.04 µM
  relative viability: 1.34
SW 1573; first compound 0.1265 µM
  relative viability: 1.08
SW 1573; first compound 0.4 µM
  relative viability: 0.997
SW 1573; first compound 1.265 µM
  relative viability: 0.978
SW 1573; first compound 4 µM
  relative viability: 0.821
